Measurements from publication PMC9736157 (Molecules, 2022).
Like-named read-outs stand apart in the source and are kept apart here.

Assays:
A375 melanoma cell line = assay: Antiproliferative activity, CellTiter-Glo, A375; format: cell-based; conditions: Homo sapiens, A-375, A375, 72 h
Method: Based on the previous preliminary tests, we sought to investigate the ability of synthesized compounds 5–15 and reference 1 in inhibiting the proliferation of BRAF^V600E mutant cancer cells. A first screening was conducted in A375 melanoma cell lines (Table 1, Figure S2). Encorafenib was employed for comparison.
(§1) The ability of compounds 5, 10, 11, 15–selected based on their chemical diversity–to inhibit cell proliferation was then tested both in A375 and in Colo205 cancer cell lines. […] P5B was obtained by joining the BRAF inhibitor BI 882370 to pomalidomide through a five PEG unit spacer (Figure S3). In compound P5B, the linker length was of 17 atoms, the same length of the spacer used to generate our compound 10. A375 and Colo205 cells were treated for 72 h with compounds 5, 10, 11, 15, and P5B, and the antiproliferative activity was measured by a luminescent ATP-based assay, which determines the number of viable cells based on their metabolic activity. […] However, P5B was more efficient in inhibiting tumor cell viability in comparison with the other selected compounds.
(§2) Cell viability was evaluated by means of CellTiter-Glo Luminescent Assay (Promega), which allows users to measure the ATP in the cell supernatant. The assay was performed according to manufacturer’s instructions. In brief, 4.10^3 A375 or Colo205 were seeded into 96-well plates and allowed to adhere at the wall overnight. Cells were treated for 72 h with BRAF inhibitor compounds. Then, 90 µL of the cell culture medium was transferred in a white 96-well plate, to which 10 µL of CellTiter-Glo was added before measurement of luminescence. Luminescence was measured by the SPARK M10 (Tecan, Männedorf, Switzerland) plate reader.

B-RAF (V600E) = target: T1, B-RAF (V600E) (Homo sapiens, UniProt P15056, V600E); assay: BRAF^V600E inhibition assay (B-RAF (V600E) Kinase Assay Kit, Kinase-Glo MAX); format: biochemical; conditions: isolated BRAF^V600E, ATP 10 μM, 30 °C, 45 min; three experiments in duplicate; read-out: BRAF (V600E) Kinase Activity IC50 (nM ± SEM)
T1 construct: purchased BPS Bioscience
T1 sequence (P15056 whole entry V600E): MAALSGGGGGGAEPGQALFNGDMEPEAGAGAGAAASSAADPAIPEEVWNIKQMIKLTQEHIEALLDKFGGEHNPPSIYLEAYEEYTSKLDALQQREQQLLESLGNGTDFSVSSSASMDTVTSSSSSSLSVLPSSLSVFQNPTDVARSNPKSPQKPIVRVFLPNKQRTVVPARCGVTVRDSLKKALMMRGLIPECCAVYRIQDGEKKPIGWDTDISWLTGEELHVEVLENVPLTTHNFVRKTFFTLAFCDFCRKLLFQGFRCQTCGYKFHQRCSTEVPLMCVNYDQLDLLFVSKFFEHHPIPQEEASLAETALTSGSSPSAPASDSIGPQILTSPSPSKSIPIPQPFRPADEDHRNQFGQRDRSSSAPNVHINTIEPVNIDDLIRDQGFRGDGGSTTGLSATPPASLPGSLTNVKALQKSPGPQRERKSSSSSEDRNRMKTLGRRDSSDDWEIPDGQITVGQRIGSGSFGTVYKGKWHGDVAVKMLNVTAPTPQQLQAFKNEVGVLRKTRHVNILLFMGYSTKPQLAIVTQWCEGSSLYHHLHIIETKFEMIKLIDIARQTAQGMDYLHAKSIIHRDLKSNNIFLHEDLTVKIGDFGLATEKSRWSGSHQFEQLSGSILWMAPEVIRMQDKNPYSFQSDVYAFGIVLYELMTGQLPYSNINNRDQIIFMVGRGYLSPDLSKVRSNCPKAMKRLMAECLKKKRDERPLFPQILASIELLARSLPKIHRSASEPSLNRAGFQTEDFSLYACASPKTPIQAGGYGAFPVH
Method: In a 96-well plate, the different inhibitor solutions in DMSO were mixed with Buffer, ATP (10 μM) and Raf substrate. […] After a 15 min delay to equilibrate plate temperature, 50 μL of Kinase-Glo Max was added in each well, and the luminescence was measured according to supplier’s instruction. The results, reported as IC50 ± S.E.M., were calculated with GrapPad Prism 7 and derive from three different experiments run in duplicate.

Colo205 cell line = assay: Antiproliferative activity, CellTiter-Glo, Colo205; format: cell-based; conditions: Homo sapiens, COLO 205; Colo205, 72 h (Figure 6b); read-out: Antiproliferative activity IC50 (nM ± SEM)
Method: as §1, §2

BRAF^V600E [1] = tested on: T2, BRAF^V600E; assay: Western blot, BRAF^V600E degradation in Colo205; format: cell-based
T2 construct: endogenous in cells; host or cells: A375 and Colo205 cell lines
Method: (§3) Finally, we investigated the capability of the most antiproliferative compounds in interfering with BRAF pathway, favoring target degradation. To this end, Western blot analysis was conducted 24 h after incubation with 10 and 11 in both A375 and Colo205 cell lines. […] This observation was consistent with their ability to inhibit BRAF^V600E.
(§4) To measure the capability of our compounds to interfere with BRAF pathway, pre-treated A375 and Colo205 cells were lysed. We then performed protein analysis through Western blot by using the following primary antibodies: anti-phospho ERK 1/2 (clone E10; dilution 1:1000; Cell Signaling Technology, Danvers, MA, USA) and anti-ERK (clone 137F5; dilution 1:1000; Cell Signaling Technology); anti-phospho MEK (clone S217/221; dilution 1:1000; Cell Signaling Technology); anti-MEK1,2 (clone 9122; dilution 1:1000; Cell Signaling Technology); anti-BRAF v600e (dilution 1:1000; Abcam, Cambridge, UK); and anti-total BRAF (dilution 1:1000; ThermoFisher, Waltham, MA, USA). Vinculin (clone E1E9B; dilution 1:1000; Cell Signaling Technology) was used as a loading control. The total protein amount was determined using the bicinchoninic acid (BCA) protein assay reagent (Thermo Scientific, Waltham, MA, USA). Equivalent amounts of protein were separated by SDS–PAGE on precast Bolt 4–12% Bis-Tris gel (Invitrogen, Carlsbad, CA, USA). Proteins were then transferred from gel to nitrocellulose with a Trans-Blot Turbo transfer system (Biorad, Hercules, CA, USA), probed with goat anti-rabbit IgG (H+L) secondary antibody, HRP conjugate (Invitrogen) or goat anti-mouse IgG (H+L) secondary antibody, HRP conjugate (Jackson ImmunoResearch Inc., Langcaster, PA, USA), and detected using enhanced chemiluminescence technique (Western Lightning Plus-ECL, Enhanced Chemiluminescence Substrate; Perkin Elmer, catalog # NEL105001EA, Waltham, MA, USA).

[2] = tested on: phosphorylation of MEK and ERK; assay: Western blot, BRAF signaling in A375; format: cell-based; conditions: A375, 24 h incubation
Method: as §3
(§5) To measure the capability of our compounds to interfere with BRAF pathway, pre-treated A375 and Colo205 cells were lysed. […] The total protein amount was determined using the bicinchoninic acid (BCA) protein assay reagent (Thermo Scientific, Waltham, MA, USA). […] Proteins were then transferred from gel to nitrocellulose with a Trans-Blot Turbo transfer system (Biorad, Hercules, CA, USA), probed with goat anti-rabbit IgG (H+L) secondary antibody, HRP conjugate (Invitrogen) or goat anti-mouse IgG (H+L) secondary antibody, HRP conjugate (Jackson ImmunoResearch Inc., Langcaster, PA, USA), and detected using enhanced chemiluminescence technique (Western Lightning Plus-ECL, Enhanced Chemiluminescence Substrate; Perkin Elmer, catalog # NEL105001EA, Waltham, MA, USA).

[3] = tested on: phosphorylation of MEK and ERK; assay: Western blot, BRAF signaling in Colo205; format: cell-based; conditions: Colo205, 24 h incubation
Method: as §3, §5

BRAF^V600E [4] = tested on: T2, BRAF^V600E; assay: Western blot, BRAF^V600E degradation in A375; format: cell-based
Method: as §3, §4

[5] = first screening (Table 1), read-out: Antiproliferative Activity IC50 ± SEM
[6] = second set of experiments (Figure 6a), read-out: Antiproliferative activity IC50 (nM ± SEM)

SMILES	IC50 (A375 melanoma cell line; [5]) [nM]	IC50 (B-RAF (V600E)) [nM]	other results
CC(C)n1cc(-c2ccnc(NC[C@H](C)NC(=O)CCOCCOCCn3cc(COCCC(=O)Nc4cccc5c4C(=O)N(C4CCC(=O)NC4=O)C5=O)nn3)n2)c(-c2cc(Cl)cc(NS(C)(=O)=O)c2F)n1 (stereo partly drawn) [Compound 12, N-((S)-1-((4-(3-(5-chloro-2-fluoro-3-(methylsulfonamido)phenyl)-1-isopropyl-1H-pyrazol-4-yl)pyrimidin-2-yl)amino)propan-2-yl)-3-(2-(2-(4-((3-((2-(2,6-dioxopiperidin-3-yl)-1,3-dioxoisoindolin-4-yl)amino)-3-oxopropoxy)methyl)-1H-1,2,3-triazol-1-yl)ethoxy)ethoxy)propanamide]	732 ± 16	40 ± 4	–
CC(C)n1cc(-c2ccnc(NC[C@H](C)NC(=O)CCOCCOCCn3cc(COCCOCCNc4cccc5c4C(=O)N(C4CCC(=O)NC4=O)C5=O)nn3)n2)c(-c2cc(Cl)cc(NS(C)(=O)=O)c2F)n1 (some centres unmarked) [Compound 13]	4100 ± 71.5	58 ± 19	–
CC(C)n1cc(-c2ccnc(NC[C@H](C)NC(=O)CCOCCOCCOCC(=O)Nc3cccc4c3CN(C3CCC(=O)NC3=O)C4=O)n2)c(-c2cc(Cl)cc(NS(C)(=O)=O)c2F)n1 (stereo partly drawn) [Compound 14, N-((S)-1-((4-(3-(5-chloro-2-fluoro-3-(methylsulfonamido)phenyl)-1-isopropyl-1H-pyrazol-4-yl)pyrimidin-2-yl)amino)propan-2-yl)-3-(2-(2-(2-((2-(2,6-dioxopiperidin-3-yl)-1-oxoisoindolin-4-yl)amino)-2-oxoethoxy)ethoxy)ethoxy)propenamide]	1046 ± 0.75	88 ± 17	–
Cc1ncsc1-c1ccc(CNC(=O)[C@@H]2C[C@@H](O)CN2C(=O)[C@@H](NC(=O)COCCOCCOCCC(=O)N[C@@H](C)CNc2nccc(-c3cn(C(C)C)nc3-c3cc(Cl)cc(NS(C)(=O)=O)c3F)n2)C(C)(C)C)cc1 [Compound 15, (2S,4R)-1-((2S,17S)-2-(tert-butyl)-18-((4-(3-(5-chloro-2-fluoro-3-(methylsulfonamido)phenyl)-1-isopropyl-1H-pyrazol-4-yl)pyrimidin-2-yl)amino)-17-methyl-4,15-dioxo-6,9,12-trioxa-3,16-diazaoctadecanoyl)-4-hydroxy-N-(4-(4-methylthiazol-5-yl)benzyl)pyrrolidine-2-carboxamide]	3380 ± 172	78 ± 9	IC50 (A375 melanoma cell line; [6]): 3830 ± 784 nM; IC50 (Colo205 cell line): 1230 ± 543 nM
COCCOCCOCCOCCC(=O)N[C@@H](C)CNc1nccc(-c2cn(C(C)C)nc2-c2cc(Cl)cc(NS(C)(=O)=O)c2F)n1 [Compound 54, (S)-N-(1-((4-(3-(5-chloro-2-fluoro-3-(methylsulfonamido)phenyl)-1-isopropyl-1H-pyrazol-4-yl)pyrimidin-2-yl)amino)propan-2-yl)-2,5,8,11-tetraoxatetradecan-14-amide]	–	80 ± 7	–
COC(=O)N[C@@H](C)CNc1nccc(-c2cn(C(C)C)nc2-c2cc(Cl)cc(NS(C)(=O)=O)c2F)n1 [encorafenib (1), encorafenib, reference compound]	< 50	–	–

Continued, in another order:

IC50 (A375 melanoma cell line; [5]) [nM]	IC50 (B-RAF (V600E)) [nM]	SMILES	other results
2740 ± 71	61 ± 10	CC(C)n1cc(-c2ccnc(NC[C@H](C)NC(=O)CCCNc3cccc4c3C(=O)N(C3CCC(=O)NC3=O)C4=O)n2)c(-c2cc(Cl)cc(NS(C)(=O)=O)c2F)n1 (stereo partly drawn) [Compound 5, N-((S)-1-((4-(3-(5-chloro-2-fluoro-3-(methylsulfonamido)phenyl)-1-isopropyl-1H-pyrazol-4-yl)pyrimidin-2-yl)amino)propan-2-yl)-4-((2-(2,6-dioxopiperidin-3-yl)-1,3-dioxoisoindolin-4-yl)amino)butanamide]	IC50 (A375 melanoma cell line; [6]): 1320 ± 304 nM; IC50 (Colo205 cell line): 280 ± 24 nM
406.1 ± 2.4	52 ± 12	CC(C)n1cc(-c2ccnc(NC[C@H](C)NC(=O)CCOCCNc3cccc4c3C(=O)N(C3CCC(=O)NC3=O)C4=O)n2)c(-c2cc(Cl)cc(NS(C)(=O)=O)c2F)n1 (stereo partly drawn) [Compound 6, N-((S)-1-((4-(3-(5-chloro-2-fluoro-3-(methylsulfonamido)phenyl)-1-isopropyl-1H-pyrazol-4-yl)pyrimidin-2-yl)amino)propan-2-yl)-3-(2-((2-(2,6-dioxopiperidin-3-yl)-1,3-dioxoisoindolin-4-yl)amino)ethoxy)propanamide]	–
520 ± 80.5	66 ± 15	CC(C)n1cc(-c2ccnc(NC[C@H](C)NC(=O)CCOCCOCCNc3cccc4c3C(=O)N(C3CCC(=O)NC3=O)C4=O)n2)c(-c2cc(Cl)cc(NS(C)(=O)=O)c2F)n1 (stereo partly drawn) [Compound 7, N-((S)-1-((4-(3-(5-chloro-2-fluoro-3-(methylsulfonamido)phenyl)-1-isopropyl-1H-pyrazol-4-yl)pyrimidin-2-yl)amino)propan-2-yl)-3-(2-(2-((2-(2,6-dioxopiperidin-3-yl)-1,3-dioxoisoindolin-4-yl)amino)ethoxy)ethoxy)propanamide]	–
2000 ± 31.8	67 ± 16	CC(C)n1cc(-c2ccnc(NC[C@H](C)NC(=O)CCOCCOCCOCCOCCNc3cccc4c3C(=O)N(C3CCC(=O)NC3=O)C4=O)n2)c(-c2cc(Cl)cc(NS(C)(=O)=O)c2F)n1 (stereo partly drawn) [Compound 9, N-((S)-1-((4-(3-(5-chloro-2-fluoro-3-(methylsulfonamido)phenyl)-1-isopropyl-1H-pyrazol-4-yl)pyrimidin-2-yl)amino)propan-2-yl)-1-((2-(2,6-dioxopiperidin-3-yl)-1,3-dioxoisoindolin-4-yl)amino)-3,6,9,12-tetraoxapentadecan-15-amide]	–
389 ± 15.1	43 ± 16	CC(C)n1cc(-c2ccnc(NC[C@H](C)NC(=O)CCOCCOCCn3cc(CNc4cccc5c4C(=O)N(C4CCC(=O)NC4=O)C5=O)nn3)n2)c(-c2cc(Cl)cc(NS(C)(=O)=O)c2F)n1 (stereo partly drawn) [Compound 11, N-((S)-1-((4-(3-(5-chloro-2-fluoro-3-(methylsulfonamido)phenyl)-1-isopropyl-1H-pyrazol-4-yl)pyrimidin-2-yl)amino)propan-2-yl)-3-(2-(2-(4-(((2-(2,6-dioxopiperidin-3-yl)-1,3-dioxoisoindolin-4-yl)amino)methyl)-1H-1,2,3-triazol-1-yl)ethoxy)ethoxy)propanamide]	IC50 (A375 melanoma cell line; [6]): 417 ± 33 nM; BRAF^V600E degradation (BRAF^V600E [1]; Colo205, 24 h, 100–500 nM): not able to induce BRAF^V600E degradation; BRAF^V600E degradation at higher concentration (BRAF^V600E [1]; Colo205, up to 10 µM (Figure S4)): no degradation of the target protein; phosphorylation of MEK and ERK [2]: able to decrease phosphorylation of MEK and ERK; phosphorylation of MEK and ERK [3]: able to decrease phosphorylation of MEK and ERK; BRAF^V600E degradation (BRAF^V600E [4]; A375, 24 h, 100–500 nM): not able to induce BRAF^V600E degradation; BRAF^V600E degradation at higher concentration (BRAF^V600E [4]; A375, up to 10 µM (Figure S4)): no degradation of the target protein; IC50 (Colo205 cell line): 104 ± 20 nM
